Key:
Assay in all cases: Inhibition Assay
Conditions in all cases: pH 7.5; 20 °C
[1] = target: Carbonic anhydrase 1 (Homo sapiens, UniProt P00915)
Source text: (§1) Inhibition assay using carbonic anhydrases with an SX.18MV-R, a stopped-flow instrument from Applied Photophysics was used for assaying the CA catalyzed CO2 hydration activity.

[2] = target: Carbonic anhydrase 12 (Homo sapiens, UniProt O43570)
Source text: as §1

[3] = target: Carbonic anhydrase 3 (Homo sapiens, UniProt P07451)
Source text: as §1

[4] = target: Carbonic anhydrase 7 (Homo sapiens, UniProt P43166)
Source text: as §1

[5] = target: Carbonic anhydrase 6 (Homo sapiens, UniProt P23280)
Source text: as §1

[6] = target: Carbonic anhydrase 5B, mitochondrial (Homo sapiens, UniProt Q9Y2D0)
Source text: as §1

[7] = target: Carbonic anhydrase 5A, mitochondrial (Homo sapiens, UniProt P35218)
Source text: as §1

[8] = target: Carbonic anhydrase 13 (Homo sapiens, UniProt Q8N1Q1)
Source text: as §1

[9] = target: Carbonic anhydrase 4 (Homo sapiens, UniProt P22748)
Source text: as §1

[10] = target: Carbonic anhydrase 14 (Homo sapiens, UniProt Q9ULX7)
Source text: as §1

[11] = target: Carbonic anhydrase 2 (Homo sapiens, UniProt P00918)
Source text: as §1

Chain of Carbonic anhydrase 5B, mitochondrial (Q9Y2D0 whole entry): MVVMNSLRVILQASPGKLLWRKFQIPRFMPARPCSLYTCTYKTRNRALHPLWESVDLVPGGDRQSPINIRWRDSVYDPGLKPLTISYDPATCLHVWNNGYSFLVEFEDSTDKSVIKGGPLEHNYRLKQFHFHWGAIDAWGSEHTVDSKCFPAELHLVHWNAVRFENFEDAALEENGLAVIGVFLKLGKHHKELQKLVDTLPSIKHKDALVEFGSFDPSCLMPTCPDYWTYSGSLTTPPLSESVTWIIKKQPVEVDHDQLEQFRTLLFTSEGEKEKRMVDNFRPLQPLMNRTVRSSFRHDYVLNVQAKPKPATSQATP
Chain of Carbonic anhydrase 5A, mitochondrial (P35218 whole entry): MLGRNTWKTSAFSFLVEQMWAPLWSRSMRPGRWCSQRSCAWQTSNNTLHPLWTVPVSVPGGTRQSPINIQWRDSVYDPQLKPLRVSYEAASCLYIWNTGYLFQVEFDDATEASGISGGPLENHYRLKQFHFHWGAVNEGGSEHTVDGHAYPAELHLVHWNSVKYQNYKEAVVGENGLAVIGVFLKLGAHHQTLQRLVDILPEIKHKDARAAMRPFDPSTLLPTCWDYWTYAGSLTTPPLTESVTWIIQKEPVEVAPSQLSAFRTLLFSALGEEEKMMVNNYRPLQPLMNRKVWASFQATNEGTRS
Chain of Carbonic anhydrase 1 (P00915 whole entry): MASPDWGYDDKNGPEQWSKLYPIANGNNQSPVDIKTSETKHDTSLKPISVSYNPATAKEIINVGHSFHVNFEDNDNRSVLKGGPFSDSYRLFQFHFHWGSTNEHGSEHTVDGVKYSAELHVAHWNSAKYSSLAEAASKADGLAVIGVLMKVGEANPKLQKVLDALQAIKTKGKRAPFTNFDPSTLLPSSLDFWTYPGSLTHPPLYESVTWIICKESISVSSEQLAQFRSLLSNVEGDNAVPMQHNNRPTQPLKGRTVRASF
Chain of Carbonic anhydrase 12 (O43570 whole entry): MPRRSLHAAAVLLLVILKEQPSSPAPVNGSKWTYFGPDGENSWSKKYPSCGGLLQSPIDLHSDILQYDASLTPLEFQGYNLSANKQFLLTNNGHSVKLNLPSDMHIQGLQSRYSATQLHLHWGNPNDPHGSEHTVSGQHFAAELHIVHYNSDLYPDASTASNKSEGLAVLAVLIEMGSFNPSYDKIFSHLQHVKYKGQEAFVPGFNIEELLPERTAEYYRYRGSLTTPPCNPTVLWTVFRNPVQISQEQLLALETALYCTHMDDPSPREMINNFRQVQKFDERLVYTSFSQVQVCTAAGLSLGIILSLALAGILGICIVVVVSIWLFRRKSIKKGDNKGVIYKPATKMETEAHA
Chain of Carbonic anhydrase 4 (P22748 whole entry): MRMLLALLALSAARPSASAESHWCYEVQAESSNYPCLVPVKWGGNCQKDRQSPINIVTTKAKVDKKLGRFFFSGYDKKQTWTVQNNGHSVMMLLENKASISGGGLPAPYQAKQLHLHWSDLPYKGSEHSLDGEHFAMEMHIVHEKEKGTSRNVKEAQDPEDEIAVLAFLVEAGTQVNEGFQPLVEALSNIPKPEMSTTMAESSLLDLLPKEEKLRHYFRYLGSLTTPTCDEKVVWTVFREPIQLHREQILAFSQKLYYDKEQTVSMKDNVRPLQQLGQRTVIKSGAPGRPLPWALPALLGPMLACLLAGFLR
Chain of Carbonic anhydrase 14 (Q9ULX7 whole entry): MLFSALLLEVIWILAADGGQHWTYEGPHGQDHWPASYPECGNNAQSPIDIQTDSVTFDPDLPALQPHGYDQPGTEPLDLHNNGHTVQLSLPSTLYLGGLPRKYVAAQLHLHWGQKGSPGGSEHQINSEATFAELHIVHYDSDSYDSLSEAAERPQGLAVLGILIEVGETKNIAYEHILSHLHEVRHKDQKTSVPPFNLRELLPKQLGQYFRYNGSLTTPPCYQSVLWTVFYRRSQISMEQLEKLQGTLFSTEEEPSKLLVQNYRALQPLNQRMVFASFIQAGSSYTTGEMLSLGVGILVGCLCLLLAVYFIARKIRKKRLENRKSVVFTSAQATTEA
Chain of Carbonic anhydrase 3 (P07451 whole entry): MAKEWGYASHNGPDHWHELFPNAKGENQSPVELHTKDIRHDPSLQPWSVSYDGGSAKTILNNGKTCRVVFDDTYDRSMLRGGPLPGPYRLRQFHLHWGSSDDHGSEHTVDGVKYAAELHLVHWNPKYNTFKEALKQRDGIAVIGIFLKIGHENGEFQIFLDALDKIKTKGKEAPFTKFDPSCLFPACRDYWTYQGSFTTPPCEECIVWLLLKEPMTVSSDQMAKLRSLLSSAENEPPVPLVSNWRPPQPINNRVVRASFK
Chain of Carbonic anhydrase 13 (Q8N1Q1 whole entry): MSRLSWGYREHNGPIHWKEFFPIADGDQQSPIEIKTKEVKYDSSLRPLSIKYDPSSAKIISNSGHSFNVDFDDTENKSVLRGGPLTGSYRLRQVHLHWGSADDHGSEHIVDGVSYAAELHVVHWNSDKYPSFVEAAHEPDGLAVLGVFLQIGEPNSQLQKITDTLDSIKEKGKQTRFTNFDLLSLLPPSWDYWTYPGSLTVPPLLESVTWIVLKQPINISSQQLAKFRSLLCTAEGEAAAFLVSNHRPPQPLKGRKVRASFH
Chain of Carbonic anhydrase 7 (P43166 whole entry): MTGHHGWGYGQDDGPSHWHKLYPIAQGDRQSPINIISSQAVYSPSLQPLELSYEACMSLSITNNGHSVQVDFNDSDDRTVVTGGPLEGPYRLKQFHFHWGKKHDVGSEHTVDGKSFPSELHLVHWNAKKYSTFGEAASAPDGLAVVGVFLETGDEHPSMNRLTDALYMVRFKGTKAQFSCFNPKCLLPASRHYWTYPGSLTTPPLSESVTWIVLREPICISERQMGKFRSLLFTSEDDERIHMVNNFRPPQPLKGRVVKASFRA
Chain of Carbonic anhydrase 6 (P23280 whole entry): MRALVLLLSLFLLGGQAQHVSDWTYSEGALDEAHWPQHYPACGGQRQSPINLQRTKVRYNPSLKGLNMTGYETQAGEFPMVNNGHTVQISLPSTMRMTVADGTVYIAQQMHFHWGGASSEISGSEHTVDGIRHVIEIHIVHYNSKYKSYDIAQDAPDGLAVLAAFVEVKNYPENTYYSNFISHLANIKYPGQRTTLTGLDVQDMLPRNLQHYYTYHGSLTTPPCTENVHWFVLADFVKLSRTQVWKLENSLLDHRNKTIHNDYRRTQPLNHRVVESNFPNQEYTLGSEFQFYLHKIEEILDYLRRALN

Ki [1] [µM]	Ki [2] [µM]	SMILES	Ki [3] [µM]	Ki [4] [µM]	Ki [5] [µM]	Ki [6] [µM]	Ki [7] [µM]	Ki [8] [µM]	Ki [9] [µM]	Ki [10] [µM]	Ki [11] [µM]
0.85	0.0009	NS(=O)(=O)c1nnc(NC(=O)[C@]23C[C@H]4C[C@H](C[C@H](C4)C2)C3)s1 [Investigational agent, 4]	310	0.0005							
0.25	0.0038	CC1(C)O[C@@H]2[C@@H](CC[C@@]3(COS(N)(=O)=O)OC(C)(C)O[C@@H]23)O1	780		0.045	0.03	0.063	0.047	4.9	1.46	
		NS(=O)(=O)c1ccc(N2CCCCS2(=O)=O)cc1 [Ospolot]	630			0.091	0.081	1.45	0.095	1.54	

SMILES	Ki [1] [µM]	Ki [2] [µM]	Ki [3] [µM]	Ki [4] [µM]	Ki [5] [µM]	Ki [6] [µM]	Ki [7] [µM]	Ki [8] [µM]	Ki [9] [µM]	Ki [10] [µM]	Ki [11] [µM]
NS(=O)(=O)c1nnc(NC(=O)N[C@]23C[C@H]4C[C@H](C[C@H](C4)C2)C3)s1 [Investigational agent, 5]	0.81	0.0047	330	0.0013	0.031	0.045	0.135	0.039	0.03	0.015	0.013
